Consider three compounds from US12291502B2, “Topoisomerase II-alpha inhibitors and methods of treating cancer using the same” (The Regents of the University of Colorado, priority 2019, dated 2025).

For one series, the target named is T1, hTopoIIα (TOP2A) (Homo sapiens, UniProt P11388).
T1 construct: purchased Topogen, CO
The experiment in a line: TOP2A ATPase / DNA relaxation assay, Michaelis-Menten mode of inhibition (malachite green). Type of series: biochemical. To be noted: Vmax unchanged, KM shifted. The method, then: TOP2A inhibition (Michaelis-Menten). TOP2A Mode of Inhibition was tested with a relaxation assay and the inorganic phosphate (pi) generated was measured with phosphate reagent (Abcam) in black polystyrene 384-well assay plates (Thermo Fisher Scientific). ATP-dependent DNA relaxation assays in 15 μl contained 2 U hTopolla (Topogen), 85 μg/mil (10 nM) supercoiled plasmid (a gift from AstraZeneca), and various concentrations of ATP (between […]) and analog 3 and 7 (between 0 and 20 μM) in 50 mM Tris-HCl (pH 7.5), 150 mM KCl, 5% (v/v) glycerol, 10 mM MgCl2, 1 mM dithiothreitol, 0.002% (w/v) Brij-35, and 200 nM bovine serum albumin (BSA). […] An addition of 70 μL of ddH2O and 15 μL of phosphate reagent were added to each well and the plates were incubated in dark at room temp for 30 min before OD600 was read with a BioTek plate reader. […]
TOP2A ATPase Assay. The mode of inhibition of TOP2A analogs were tested with a DNA relaxation assay and the inorganic phosphate (pi) generated was measured with malachite green phosphate reagent (Abcam, MA) in black polystyrene 384-well assay plates (Thermo Fisher Scientific, MA). […] An addition of 70 μL of ddH2O and 15 μL of phosphate reagent were added to each well and the plates were incubated in dark at room temp for 30 min before OD600 was read with a BioTek plate reader. […]

Another series relates to tumor xenograft. The experiment in a line: Tumor xenograft study, tumor growth. The format is in vivo, athymic nude mouse. As to conditions: i.p. 50 mg/kg, 5× per week over 28 days. Here is the method: Finally, a major goal of this drug design approach was to improve the in vivo physicochemical properties of TOP2A inhibitors compared to the natural product neo. Therefore, an in vivo study was conducted using the athymic nude mouse tumor xenograft model to determine if one of these drug leads could accumulate in tumors when administered via intraperitoneal injection (i.p.). […] Thus, compound 42 was administered i.p. at 50 mg/kg, 5× per week over 28 days.

Series [1] in a line: Water solubility (stated). The format is physicochemical.
The test system of a further series is SW620 cells. In words: Clonogenic assay (24 h pretreatment of cells). The format is cell-based. As to conditions: SW620 cells pretreated 24 hours, colonies over 7 days vs DMSO. Here is the method:
Clonogenic assay. SW620 cells were plated to allow for 70% confluency within 24 hours. Analogs 3, 7, and vehicle (DMSO) were then added to cells for 24 hours as pretreatment. A total of 1000 viable cells per well were plated into a six-well plate and medium was changed 2× per week. […] The fixed colonies were stained with 0.5% (w/v) crystal violet in 25% (v/v) methanol solution for 2 hours at room temperature. The stain was rinsed off with water and the plate was air dried at room temperature. Digital pictures were taken, and the images were saved in greyscale (8-bit). Images were adjusted for threshold with imaged software (Bethesda, MD, USA), the area of analysis was circled, and particles were analyzed by size (100-2000) and circularity (0.5-1).
After characterizing 3 and 7 as TOP2A ATP-competitive inhibitors, these compounds were next tested for their ability to inhibit TOP2A-dependent TCF-transcription using the well characterized TOPflash (TOP) luminescent reporter, which was used to generate a stably transduced SW620-TOP reporter cells as described previously (Zhou, et al., Oncogene 2016, 35:4990-9). These cells were used to generate single 3D tumor organoids (700 μm in diameter) uniformly arrayed in 96-well plates, which mimic aspects of tumor function observed in vivo. […]

The structures appear in SMILES notation. “Also recorded” adds a separate entry of the source.

T1 sequence (P11388 whole entry): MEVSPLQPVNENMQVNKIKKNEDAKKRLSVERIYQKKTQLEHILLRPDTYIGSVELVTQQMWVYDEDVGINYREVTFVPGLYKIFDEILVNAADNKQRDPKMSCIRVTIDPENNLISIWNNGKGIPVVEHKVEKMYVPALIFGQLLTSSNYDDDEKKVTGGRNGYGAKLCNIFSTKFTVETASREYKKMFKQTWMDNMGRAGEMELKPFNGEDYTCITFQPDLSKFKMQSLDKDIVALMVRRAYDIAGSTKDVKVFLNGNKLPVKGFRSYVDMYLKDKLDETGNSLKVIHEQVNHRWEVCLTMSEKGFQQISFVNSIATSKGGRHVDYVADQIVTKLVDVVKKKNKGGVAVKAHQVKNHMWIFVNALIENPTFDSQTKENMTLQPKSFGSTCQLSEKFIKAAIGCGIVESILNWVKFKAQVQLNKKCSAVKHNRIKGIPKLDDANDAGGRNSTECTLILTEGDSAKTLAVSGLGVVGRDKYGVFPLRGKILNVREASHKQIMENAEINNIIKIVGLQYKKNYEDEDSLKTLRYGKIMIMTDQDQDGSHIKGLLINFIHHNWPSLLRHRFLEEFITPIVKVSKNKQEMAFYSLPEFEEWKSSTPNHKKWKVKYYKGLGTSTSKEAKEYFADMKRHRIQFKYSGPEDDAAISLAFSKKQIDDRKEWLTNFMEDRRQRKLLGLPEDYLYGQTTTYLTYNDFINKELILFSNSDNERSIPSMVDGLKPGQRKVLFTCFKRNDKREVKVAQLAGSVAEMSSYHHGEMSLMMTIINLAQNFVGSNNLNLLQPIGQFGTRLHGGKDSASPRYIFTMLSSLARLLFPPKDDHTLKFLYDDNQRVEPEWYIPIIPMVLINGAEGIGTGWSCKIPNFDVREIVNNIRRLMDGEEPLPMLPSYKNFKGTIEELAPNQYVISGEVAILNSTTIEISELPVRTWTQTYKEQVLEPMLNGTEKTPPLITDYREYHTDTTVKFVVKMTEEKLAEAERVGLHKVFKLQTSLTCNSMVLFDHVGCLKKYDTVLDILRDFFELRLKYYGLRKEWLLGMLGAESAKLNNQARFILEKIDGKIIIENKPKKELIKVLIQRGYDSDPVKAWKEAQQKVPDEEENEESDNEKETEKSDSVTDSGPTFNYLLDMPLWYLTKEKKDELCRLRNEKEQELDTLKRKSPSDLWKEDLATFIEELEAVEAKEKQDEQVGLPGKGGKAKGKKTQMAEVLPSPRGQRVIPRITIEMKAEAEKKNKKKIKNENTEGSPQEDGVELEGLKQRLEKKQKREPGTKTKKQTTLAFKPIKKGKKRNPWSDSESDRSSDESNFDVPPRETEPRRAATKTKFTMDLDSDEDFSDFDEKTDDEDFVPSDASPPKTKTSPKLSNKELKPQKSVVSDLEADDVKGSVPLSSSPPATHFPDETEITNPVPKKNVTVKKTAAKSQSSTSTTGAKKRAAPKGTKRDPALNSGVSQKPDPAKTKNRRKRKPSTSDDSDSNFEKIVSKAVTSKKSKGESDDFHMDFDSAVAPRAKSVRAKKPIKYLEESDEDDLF

`Cn1ccc2c(c1=O)C(=O)c1nccc3c1C2NC1=CCC=CC13` (centres unmarked) [neo, neoamphimedine, reference compound]: the “mode of TOP2A inhibition (Michaelis-Menten kinetics of ATP hydrolysis)” value at hTopoIIα (TOP2A) is reported as “ATP-competitive mode of inhibition”.
As for `O=C(CCN1CCOCC1)Nc1ccc2c(-c3cc(F)ccc3O)ccnc2c1O` [Analog 42], the tumor growth entry in the series with tumor xenograft is “no loss of any tumor growth was observed”. In addition, the “water solubility, in words” value in series [1] was “water soluble; also recorded: significantly improved water solubility”.
Turning to `CC(=O)Nc1ccc2c(-c3cc(F)ccc3O)ccnc2c1O` [Analog 7], the “clonogenic colony formation, in words” value with SW620 cells is on record as “sufficient to inhibit colony formation; also recorded: significantly inhibit clonogenic colony formation”. The “mode of TOP2A inhibition (Michaelis-Menten kinetics of ATP hydrolysis)” value at hTopoIIα (TOP2A) was “ATP-competitive mode of inhibition”.
